Values of other authors as cited in patent US5773415A, “Use of des-aspartate-angiotensin I as an anti-cardiac hypertrophic agent” (National University of Singapore, priority 1995, dated 1998).

System: specific aminopeptidase
Conditions: homogenates of rat aorta and hypothalamus

| SMILES | Inhibition of the aminopeptidase degrading angiotensin I to des-Aspartate-angiotensin I |
| --- | --- |
| CC(C)C[C@H](NC(=O)[C@@H](O)[C@H](N)Cc1ccccc1)C(=O)O [bestatin] | not inhibited |
| O=C(O)CN(CCN(CC(=O)O)CC(=O)O)CC(=O)O [EDTA] | not inhibited |
| CC(C)C[C@@H](N)[C@H](O)C(=O)N[C@H](C(=O)N[C@H](C(=O)N[C@@H](CC(=O)O)C(=O)O)C(C)C)C(C)C [amastatin] | not inhibited |
